Measured values as given in US20250170101A1, “MONOACYLGLYCEROL LIPASE INHIBITORS AND USE THEREOF FOR THE TREATMENT AND MANAGEMENT OF PAIN AND RELATED CONDITIONS” (Psy Therapeutics, Inc., priority 2021, published 2025).

Experiments:
MAGL enzyme = target: T1, MAGL enzyme (Homo sapiens, UniProt Q99685); test: MAGL reversible inhibition assay (washout), Example 22; assay type: biochemical; parameters: % MAGL activity returning after washout: concentration or dose not given beside the values; details: for degree to which MAGL enzymatic activity returned following washout of test compounds: pre-washout compound concentration 1 μM; for % MAGL activity returning after washout: relative to control (no inhibitor before washout), immediately following 30 minute washout
T1 sequence (Q99685 1-303): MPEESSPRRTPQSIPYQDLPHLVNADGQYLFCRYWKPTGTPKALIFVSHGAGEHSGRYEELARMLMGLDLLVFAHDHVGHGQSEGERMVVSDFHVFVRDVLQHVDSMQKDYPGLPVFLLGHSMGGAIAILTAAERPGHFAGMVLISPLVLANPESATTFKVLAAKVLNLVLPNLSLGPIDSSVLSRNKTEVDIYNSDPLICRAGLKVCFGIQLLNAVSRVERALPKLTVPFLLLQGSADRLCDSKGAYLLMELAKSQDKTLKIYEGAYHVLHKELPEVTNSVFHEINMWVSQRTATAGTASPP
Procedure: The reversible mechanism of MAGL inhibition of a test compound of Formula (I) can be determined. Flag-tagged MAGL enzyme will be immobilized on anti-Flag beads. Immobilized enzyme will be incubated+/−inhibitor at a dose that produces complete inhibition. Colorimetric substrate (4-NPA) will be added and the reaction monitored on a plate reader for 30 minutes to verify complete inhibition. Immobilized enzyme will then be washed thoroughly to remove the inhibitor, and fresh substrate will be added. The reaction will be monitored for an additional 30 minutes; returning enzymatic activity will indicate reversibility of inhibition. […]
For some test compounds, % activity returning after washout may be less than 100%/if complete compound unbinding takes longer than 30 minutes.

human recombinant FAAH = target: T2, human recombinant FAAH (Homo sapiens, UniProt O00519); test: FAAH counter screen (Cayman FAAH Inhibitor Screening Assay Kit), Example 21; assay type: biochemical
T2 construct: purchased Cayman kit Item No. 10005196; FAAH enzyme 700302
T2 sequence (O00519 1-579): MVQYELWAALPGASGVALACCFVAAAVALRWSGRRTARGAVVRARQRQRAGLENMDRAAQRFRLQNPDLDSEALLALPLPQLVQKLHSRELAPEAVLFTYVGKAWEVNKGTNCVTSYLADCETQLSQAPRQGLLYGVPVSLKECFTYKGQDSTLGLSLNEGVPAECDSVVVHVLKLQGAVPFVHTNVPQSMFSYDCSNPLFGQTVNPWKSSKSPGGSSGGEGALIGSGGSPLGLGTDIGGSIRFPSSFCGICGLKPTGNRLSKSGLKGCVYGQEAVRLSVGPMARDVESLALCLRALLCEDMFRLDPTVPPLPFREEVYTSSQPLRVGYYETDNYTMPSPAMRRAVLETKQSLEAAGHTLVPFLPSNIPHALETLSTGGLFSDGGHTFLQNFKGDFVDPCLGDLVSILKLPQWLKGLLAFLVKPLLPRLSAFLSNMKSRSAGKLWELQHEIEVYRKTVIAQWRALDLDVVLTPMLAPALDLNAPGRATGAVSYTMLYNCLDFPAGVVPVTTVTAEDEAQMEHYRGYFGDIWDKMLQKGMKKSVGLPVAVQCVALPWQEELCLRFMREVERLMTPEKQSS
Procedure: Comparative compound potency at FAAH can be obtained with the following assay.
MAGL inhibitor compounds were also counter-screened for FAAH inhibition potency using the following assay. Assessment of FAAH inhibition was performed using Fatty Acid Amide Hydrolase Inhibitor Screening Assay Kit (Cayman Item No. 10005196) following manufacture's instruction with some modifications. The kit utilizes human recombinant FAAH and the fluorescent substrate, AMC Arachidonoyl amide (AAMCA). 5 μL of assay buffer (125 mM Tris, pH 9.0, 1 mM EDTA, i.e. ethylenediaminetetraacetic acid) was added to a 384-well black plate (Corning, 3573). Test compounds and control inhibitor JZL-195 (Cayman Chemical, 13668) were tested in 10-concentration IC50 mode with 3-fold serial dilution at a starting concentration of 100 μM and 10 μM, respectively. 300 nL or 30 nL of test compounds were delivered into a 384-well black plate (Corning, 3573) using a Labcyte Echo, followed by addition of 15 μL of FAAH enzyme (Cayman, 700302) in assay buffer. After a 5-minute pre-incubation at room temperature, 10 μL of AAMCA was added in assay buffer to start the reaction. Final concentration of FAAH enzyme is not specified and AAMCA substrate was used at the 20 uM. After these dilutions, the final concentration of the test compounds ranged from 100 μM to 5.08 nM or 10 μM down to 0.508 nM. The reaction was allowed to progress for 60 minutes, while the plate was read on an Envision plate reader at an Ex/Em of 350/460 nm with readings every minute. The data was analyzed in Microsoft Excel, using the slope between 30 and 59 minutes. The average of the no-enzyme wells (background) was subtracted from the data. The background-subtracted slope data was converted to % activity using the average of wells with enzyme and DMSO vehicle. IC50 values were calculated using GraphPad software (Sigmoidal dose response, variable slope equation).
Compounds listed in Table D2 were tested in the FAAH Counterscreen of Example 21

[1] = system: Post-Operative Pain (Brennan) mouse model; test: Chronic treatment in Post-Operative Pain (Brennan) mouse model, Example 27; assay type: in vivo, Mus Musculus C57BL/6; details: 40 mg/kg, IP, single dose
Text: The aim of this experiment was to evaluate effect of the test compounds Compound 74 and JZL-184 in after Chronic treatment in a Post-Operative Pain (Brennan) mouse model. • Mouse model: Mus Musculus & C57BL/6, male, 6-8 weeks • End points: mechanical allodynia and body weight
(§1) • Animals was anaesthetized under Isoflorane anesthesia. • Using aseptic conditions, prepared the plantar aspect of left hind paw with a 10% povidone-iodine solution and place the paw through a hole in a sterile cloth drape. Made a 0.5-cm longitudinal incision through skin and fascia of the paw with a no. 11 scalpel blade, beginning 0.2 cm from the proximal edge of the heel and extending toward the digits. • Elevated the underlying muscle with small curved forceps and incised longitudinally with the scalpel blade, keeping the muscle origin and insertion intact. • After homeostasis with gentle pressure, apposed the skin with 5-0 slik sutures. Cover the wound site.

[2] = system: Acute Post-Operative Pain (Brennan) mice model; test: Acute Post-Operative Pain (Brennan) mice model, Example 26; assay type: in vivo, Mus Musculus C57BL/6; details: 40 mg/kg, IP
Text: The aim of this experiment was to evaluate effect of the test compounds Compound 74 and JZL-184 in Acute Post-Operative Pain (Brennan) mice model. • Mouse model: Mus Musculus & C57BL/6, male, 6-8 weeks • End points: mechanical allodynia and brain 2-AG (optional)
as §1

[3] = Method A: starting concentration of 100 μM

Row | SMILES | degree to which MAGL enzymatic activity returned following washout of test compounds (MAGL enzyme) | % MAGL activity returning after washout (MAGL enzyme) [%] | IC50 (human recombinant FAAH; Method B: starting concentration of 10 μM) [nM] | mechanical allodynia (Threshold, g) vs Vehicle control [1] | mechanical allodynia (Threshold, g) vs Vehicle control ([2]; at 30, 60 & 90 min) | Clinical observation ([2]; post IP administration) | IC50 (human recombinant FAAH; [3]) [nM]
1 | O=C(c1cc(O)ccc1F)N1CC2(CC(n3cc(C4CC4)c(-c4ccccc4F)n3)C2)C1 [Compound 493] | 47 | <50 | > 10000 |  |  |  | 
2 | O=C(Oc1ccc([N+](=O)[O-])cc1)N1CCC(C(O)(c2ccc3c(c2)OCO3)c2ccc3c(c2)OCO3)CC1 [JZL-184, reference compound] | complete lack of return of MAGL enzymatic activity | <1 |  | significant decrease in mechanical allodynia | significant decrease in mechanical allodynia | mild hypolocomotion | 
3 | O=C(Oc1ccc([N+](=O)[O-])cc1)N1CCN(Cc2cccc(Oc3ccccc3)c2)CC1 [reference compound] |  |  |  |  |  |  | 459
4 | O=C(Nc1cccnc1)N1CCC(Cc2cccc(Oc3ccc(C(F)(F)F)cn3)c2)CC1 [reference compound] |  |  |  |  |  |  | 14
